Several values for one entry are separate records, joined by “and”; a condition that tells them apart may be missing. Equal entries are not always repeated.
Tested on: MDA-MB-468 multi-cell spheroids, viability
Experiment: Anticancer human tumor MDA-MB-468 cell line growth inhibition [IpAb];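 note: spheroids exposed to agents for seven days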;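 for viability, T/C: 100% = DMSO vehicle control viability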
Conditions: for viability, T/C: stronger effect = lower value
From the text: Combinatorial screen of targeted agents with ipatasertib and abemaciclib in multi-cell type tumor spheroids
A high-throughput screen of multi-cell type tumor spheroids was designed to identify active combinations of targeted small molecules and ipatasertib or abemaciclib. Complex spheroids include a stromal component modeled by human endothelial cells (HUVEC) and fibroblasts modeled by human mesenchymal stem cells (MSCs). The concentration ranges selected for each drug and investigational agent were based upon clinically achievable concentrations if the clinical Cmax of the agent was known.
Compounds. The drugs and investigational agents: ipatasertib (NSC767898), abemaciclib(NSC768073), selumetinib (NSC741078), trametinib (758246), adavosertib (NSC754352), everolimus (NSC733504), sapanisertib (NSC764658), vemurafenib (NSC761431), venetoclax (NSC766270), copanlisib (NSC809693), apelisib (NSC765974), palbociblib (NSC758247), vemurafenib (NSC761431), dabrafenib (NSC764134), ravoxertinib (NSC781343), BMS-387032 (NSC767048), sotorasib (NSC818433), talazoparib (NSC767125) and afursertib (NSC778305), were obtained from the National Cancer Institute (NCI) Developmental Therapeutics Program Chemical Repository. The FDA-approved anticancer drug set is available from the NCI Developmental Therapeutics Program. […] The stock solutions were prepared in dimethyl sulfoxide (DMSO, Sigma-Aldrich, St. Louis, MO, cat. D2650) at 800-fold the tested concentration and stored at -70 degrees C prior to their use. All drugs and investigational agents were tested over a range starting from a high concentration at or near the clinical Cmax and decreasing in half-log increments. If the clinical Cmax for an agent had not been determined, the highest concentration tested was 10 microM.
NCI60 Cell Culture. NCI60 cell lines were obtained from the NCI Developmental Therapeutics Program Tumor Repository. For each lot of cells, the Repository performed Applied Biosystems AmpFLSTR Identifiler testing with PCR amplification to confirm consistency with the published Identifier STR profile for each cell line. Cells were kept in continuous culture for no more than 20 passages. The optimal seeding densities for each of the cell lines at each time point assessed were determined prior to performing the concentration response studies. Briefly, the NCI60 human tumor lines were grown as monolayers in RPMI 1640 medium supplemented with 10% FBS and 2 mmol/L L-glutamine.
An additional 9 lines were from the NCI60 cell line panel including MDA-MB-231 breast carcinoma, MDA-MB-468 breast carcinoma, MCF7 breast carcinoma, Hs578T breast carcinoma, MALME-3M melanoma, SK-MEL-2 melanoma, SK-OV-3 ovarian carcinoma, DU-145 prostate carcinoma, PC-3 prostate carcinoma, all cell lines along with major genetic alterations are listed on Table 2. Pooled donor human umbilical vein endothelial cells (HUVEC, Lonza, cat. CC-2519) and human mesenchymal stem cells (hMSC, Lonza, cat. PT-2501) were purchased from Lonza (Walkersville, MD).
PDMR cell lines were grown in complete medium (DC medium): Dulbecco's modified Eagle's medium (DMEM)/F12 supplemented with 5% fetal bovine serum (FBS), 2 mM L-glutamine, 100 U/mL penicillin and 100 µg/ml streptomycin, 0.4 µg/ml hydrocortisone, 10 ng/ml epidermal growth factor (EGF) recombinant human protein, 24 µg/mL adenine, and 0.1 mg/mL primocin. During culture from frozen stock vials, PDMR cells were cultured in the same medium containing 10 µM Y-27632 (see Table 3). The PDCs were cultured in complete DMEM/F12 media without 10 microM Y-27632 dihydrochloride for at least two passages prior to the screen. The pooled donor HUVEC and hMSC were cultured in endothelial cell growth medium 2 (PromoCell, Heidelberg, Germany, cat. C-22011) and mesenchymal stem cell growth medium 2 (PromoCell, cat. C-28009), respectively. For all experiments, HUVEC and hMSC were used at passages </=5.
[…]

[1] = curve of first compound, second compound 0.1 µM
[2] = curve of first compound, second compound 0.316 µM
[3] = curve of first compound, second compound 1 µM
[4] = curve of first compound, second compound 3.16 µM
[5] = curve of first compound, second compound 10 µM
[6] = second compound 0.1 µM, first compound 0.0316 µM
[7] = second compound 0.1 µM, first compound 0.1 µM
[8] = second compound 0.1 µM, first compound 0.316 µM
[9] = second compound 0.1 µM, first compound 1 µM
[10] = second compound 0.1 µM, first compound 3.16 µM
[11] = second compound 0.1 µM, first compound 10 µM
[12] = second compound 0.316 µM, first compound 0.0316 µM
[13] = second compound 0.316 µM, first compound 0.1 µM
[14] = second compound 0.316 µM, first compound 0.316 µM
[15] = second compound 0.316 µM, first compound 1 µM
[16] = second compound 0.316 µM, first compound 3.16 µM
[17] = second compound 0.316 µM, first compound 10 µM
[18] = second compound 1 µM, first compound 0.0316 µM
[19] = second compound 1 µM, first compound 0.1 µM
[20] = second compound 1 µM, first compound 0.316 µM
[21] = second compound 1 µM, first compound 1 µM
[22] = second compound 1 µM, first compound 3.16 µM
[23] = second compound 1 µM, first compound 10 µM
[24] = second compound 3.16 µM, first compound 0.0316 µM
[25] = second compound 3.16 µM, first compound 0.1 µM
[26] = second compound 3.16 µM, first compound 0.316 µM
[27] = second compound 3.16 µM, first compound 1 µM
[28] = second compound 3.16 µM, first compound 3.16 µM
[29] = second compound 3.16 µM, first compound 10 µM
[30] = second compound 10 µM, first compound 0.0316 µM
[31] = second compound 10 µM, first compound 0.1 µM
[32] = second compound 10 µM, first compound 0.316 µM
[33] = second compound 10 µM, first compound 1 µM
[34] = second compound 10 µM, first compound 3.16 µM
[35] = second compound 10 µM, first compound 10 µM

CCCS(=O)(=O)Nc1ccc(F)c(C(=O)c2c[nH]c3ncc(-c4ccc(Cl)cc4)cc23)c1F + CC(C)NCC(C(=O)N1CCN(c2ncnc3c2C(C)CC3O)CC1)c1ccc(Cl)cc1
IC50 [1]: > 10000 nM | IC50 [2]: 9960 nM | IC50 [3]: 498 nM | IC50 [4]: < 31.6 nM | IC50 [5]: < 31.6 nM | viability, T/C [6]: 86.3% | viability, T/C [7]: 87.3% | viability, T/C [8]: 98.5% | viability, T/C [9]: 98% | viability, T/C [10]: 71.7% | viability, T/C [11]: 50.1% | viability, T/C [12]: 62.2% | viability, T/C [13]: 60.7% | viability, T/C [14]: 62.5% | viability, T/C [15]: 74.8% | viability, T/C [16]: 53.3% | viability, T/C [17]: 39.3% | viability, T/C [18]: 58.4% | viability, T/C [19]: 53.6% | viability, T/C [20]: 52.6% | viability, T/C [21]: 46% | viability, T/C [22]: 40.1% | viability, T/C [23]: 27.8% | viability, T/C [24]: 35.7% | viability, T/C [25]: 34.1% | viability, T/C [26]: 29.4% | viability, T/C [27]: 31.3% | viability, T/C [28]: 30.1% | viability, T/C [29]: 18.6% | viability, T/C [30]: 17.3% | viability, T/C [31]: 18.3% | viability, T/C [32]: 18.9% | viability, T/C [33]: 16.9% | viability, T/C [34]: 13.7% | viability, T/C [35]: 2.03%

Cn1ncc(Cl)c1-c1cc(C(=O)NC(CN)Cc2cccc(F)c2)sc1Cl (configuration not stated) + CCN1CCN(Cc2ccc(Nc3ncc(F)c(-c4cc(F)c5nc(C)n(C(C)C)c5c4)n3)nc2)CC1
IC50 (curve of first compound, second compound 0.01 µM): 461 nM | IC50 (curve of first compound, second compound 0.0316 µM): 319 nM | IC50 [1]: 318 nM | IC50 [2]: 396 nM | IC50 [3]: 223 nM | viability, T/C (second compound 0.01 µM, first compound 0.0316 µM): 88.4% | viability, T/C (second compound 0.01 µM, first compound 0.1 µM): 74.1% | viability, T/C (second compound 0.01 µM, first compound 0.316 µM): 57.7% | viability, T/C (second compound 0.01 µM, first compound 1 µM): 36.6% | viability, T/C (second compound 0.01 µM, first compound 3.16 µM): 11.8% | viability, T/C (second compound 0.01 µM, first compound 10 µM): 0.13% | viability, T/C (second compound 0.0316 µM, first compound 0.0316 µM): 97.3% | viability, T/C (second compound 0.0316 µM, first compound 0.1 µM): 58.5% | viability, T/C (second compound 0.0316 µM, first compound 0.316 µM): 48% | viability, T/C (second compound 0.0316 µM, first compound 1 µM): 34.1% | viability, T/C (second compound 0.0316 µM, first compound 3.16 µM): 15.1% | viability, T/C (second compound 0.0316 µM, first compound 10 µM): 0.12% | viability, T/C [6]: 109% | viability, T/C [7]: 72% | viability, T/C [8]: 51.5% | viability, T/C [9]: 31.8% | viability, T/C [10]: 11.2% | viability, T/C [11]: 0.11% | viability, T/C [12]: 81.2% | viability, T/C [13]: 72.6% | viability, T/C [14]: 53.4% | viability, T/C [15]: 32.6% | viability, T/C [16]: 5.2% | viability, T/C [17]: 0.11% | viability, T/C [18]: 81.5% | viability, T/C [19]: 52.9% | viability, T/C [20]: 53.4% | viability, T/C [21]: 26% | viability, T/C [22]: 2.78% | viability, T/C [23]: 0.19%

Cc1nc(NC(=O)N2CCCC2C(N)=O)sc1-c1ccnc(C(C)(C)C(F)(F)F)c1 (configuration not stated) + CC(C)NCC(C(=O)N1CCN(c2ncnc3c2C(C)CC3O)CC1)c1ccc(Cl)cc1
IC50 [1]: 5510 nM | IC50 [2]: 3820 nM | IC50 [3]: < 31.6 nM | IC50 [4]: < 31.6 nM | IC50 [5]: < 31.6 nM | viability, T/C [6]: 82.6% | viability, T/C [7]: 75.6% | viability, T/C [8]: 79.1% | viability, T/C [9]: 75.6% | viability, T/C [10]: 72.3% | viability, T/C [11]: 26.3% | viability, T/C [12]: 61.5% | viability, T/C [13]: 61.1% | viability, T/C [14]: 58.9% | viability, T/C [15]: 53.7% | viability, T/C [16]: 57.1% | viability, T/C [17]: 16.3% | viability, T/C [18]: 47.8% | viability, T/C [19]: 45.7% | viability, T/C [20]: 48% | viability, T/C [21]: 36.8% | viability, T/C [22]: 31.4% | viability, T/C [23]: 8.2% | viability, T/C [24]: 32.6% | viability, T/C [25]: 30.6% | viability, T/C [26]: 25.5% | viability, T/C [27]: 20.8% | viability, T/C [28]: 20.6% | viability, T/C [29]: 4.36% | viability, T/C [30]: 16.3% | viability, T/C [31]: 14.8% | viability, T/C [32]: 13.2% | viability, T/C [33]: 10.3% | viability, T/C [34]: 7.57% | viability, T/C [35]: 1.53%

CC1(C)CCC(CN2CCN(c3ccc(C(=O)NS(=O)(=O)c4ccc(NCC5CCOCC5)c([N+](=O)[O-])c4)c(Oc4cnc5[nH]ccc5c4)c3)CC2)=C(c2ccc(Cl)cc2)C1
viability, T/C (compound 0.0316 µM): 111% and 107% | viability, T/C (compound 0.1 µM): 106% and 94.5% | viability, T/C (compound 0.316 µM): 102% and 89.2% | viability, T/C (compound 1 µM): 95.9% and 85.8% | viability, T/C (compound 3.16 µM): 73% and 52.9% | viability, T/C (compound 10 µM): 10% and 5.86% | IC50 (curve of compound): 4770 nM and 3520 nM
